This passage reports T/C results from PubChem BioAssay AID330 (DTP/NCI, 2004).

Several values for one entry are separate records, joined by “and”; a condition that tells them apart may be missing. Equal entries are not always repeated. Toxic doses and inconclusive results are not listed.

This assay deals with P388 leukemia ip, CD2F1 mice, survival T/C. Description: NCI In Vivo Anticancer Drug Screen. Data for tumor model P388 Leukemia (intraperitoneal) in CD2F1 (CDF1) mice. The note with it: endpoint: median survival time, higher = longer survival. Put shortly: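 Mice carrying the transplanted tumor received test compound or vehicle. Survival was recorded in each group, and the value is the treated-group measurement divided by that of the vehicle-treated control group.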

Setting [1] is: dose: 25.0 mg/kg/injection, schedule: Q01DX005 (ip), vehicle: saline with Tween-80.
The mark [2] stands for this setting: dose: 50.0 mg/kg/injection, schedule: Q01DX005 (ip), vehicle: saline with Tween-80.
Where [3] appears, read: dose: 100.0 mg/kg/injection, schedule: Q01DX005 (ip), vehicle: saline with Tween-80.
[4] abbreviates: dose: 200.0 mg/kg/injection, schedule: Q01DX005 (ip), vehicle: saline with Tween-80.
Setting [5] is: dose: 60.0 mg/kg/injection, schedule: Q01DX005 (ip), vehicle: saline with Tween-80.
Where [6] appears, read: dose: 120.0 mg/kg/injection, schedule: Q01DX005 (ip), vehicle: saline with Tween-80.
[7] abbreviates: dose: 100.0 mg/kg/injection, schedule: Q04DX002 (ip), vehicle: saline.
[8] abbreviates: dose: 200.0 mg/kg/injection, schedule: Q04DX002 (ip), vehicle: saline.
[9] abbreviates: dose: 400.0 mg/kg/injection, schedule: Q04DX002 (ip), vehicle: saline.
Setting [10] is: dose: 50.0 mg/kg/injection, schedule: Q01DX009 (ip), vehicle: Klucel (hydroxypropylcellulose) (HPC).
[11] abbreviates: dose: 100.0 mg/kg/injection, schedule: Q01DX009 (ip), vehicle: Klucel (hydroxypropylcellulose) (HPC).
Where [12] appears, read: dose: 200.0 mg/kg/injection, schedule: Q01DX009 (ip), vehicle: Klucel (hydroxypropylcellulose) (HPC).
[13] abbreviates: dose: 100.0 mg/kg/injection, schedule: Q01DX001 (ip), vehicle: Klucel (hydroxypropylcellulose) (HPC).
Setting [14] is: dose: 240.0 mg/kg/injection, schedule: Q01DX005 (ip), vehicle: saline with Tween-80.

As to `CN1[C@H]2C=CC(=O)[C@]1(Cl)[C@H]1C(=O)N(c3ccccc3)C(=O)[C@@H]21`, the T/C is 106 % of control under setting [1], 109 % of control under setting [2], 105 % of control under setting [3] and 118 % of control under setting [4].
On to `CCOC(=O)C1=C(C)NC(C)=C(C(=O)OCC)C1c1ccncc1`, for which the T/C is 103 % of control (dose: 25.0 mg/kg/injection, schedule: Q01DX009 (ip), vehicle: other); 89 % of control (dose: 50.0 mg/kg/injection, schedule: Q01DX009 (ip), vehicle: other); 96 % of control (dose: 100.0 mg/kg/injection, schedule: Q01DX009 (ip), vehicle: other); 97 % of control (dose: 200.0 mg/kg/injection, schedule: Q01DX009 (ip), vehicle: other); 95 % of control (dose: 400.0 mg/kg/injection, schedule: Q01DX009 (ip), vehicle: other).
`COc1cccc2c1C(=O)c1c(O)c3c(c(O)c1C2=O)C[C@@](O)(C(=O)CSc1nnc(C)s1)C[C@@H]3OC1CC(N)C(O)C(C)O1` (stereo partly drawn): the T/C is, setting by setting: (dose: 6.25 mg/kg/injection, schedule: Q01DX009 (ip), vehicle: water) 154 % of control; (dose: 12.5 mg/kg/injection, schedule: Q01DX009 (ip), vehicle: water) 155 % of control and 158 % of control.
Turning to `C=CCOc1cc2c(cc1C(CC)c1ccc(OCc3ccccc3)cc1)OCO2` (stereo not drawn), the T/C is 102 % of control under setting [2], 100 % of control under setting [3] and 95 % of control under setting [4].
On to `CCCCCCCCC#CCO`, for which the T/C is, setting by setting: under setting [5], 86 % of control; under setting [6], 86 % of control.
As to `CCN(CC)C(=O)C1CCN(Cc2c[nH]c3ccccc23)CC1`, the T/C reads like this: (dose: 25.0 mg/kg/injection, schedule: Q01DX009 (ip), vehicle: saline) 99 % of control; (dose: 50.0 mg/kg/injection, schedule: Q01DX009 (ip), vehicle: saline) 104 % of control; (dose: 100.0 mg/kg/injection, schedule: Q01DX009 (ip), vehicle: saline) 107 % of control.
On to `C=C[Se](=C(C#N)C#N)c1ccccc1` (stereo not drawn), for which the T/C is, setting by setting: (dose: 25.0 mg/kg/injection, schedule: Q04DX002 (ip), vehicle: saline) 111 % of control; (dose: 50.0 mg/kg/injection, schedule: Q04DX002 (ip), vehicle: saline) 104 % of control; under setting [7], 99 % of control and 101 % of control; under setting [8], 110 % of control; under setting [9], 118 % of control.
For `O=C(CCl)n1ccc(=O)n(C(=O)CCl)c1=O`, the T/C reads like this: under setting [7], 113 % of control; under setting [8], 100 % of control; under setting [9], 103 % of control.
Take `COc1ccc(/C=N/N2CN(C(C)C(=O)O)B(N(CCO)CCO)N=C2N)cc1OC` (stereo not drawn): the T/C by setting is: (dose: 60.0 mg/kg/injection, schedule: Q01DX005 (ip), vehicle: saline) 104 % of control; (dose: 120.0 mg/kg/injection, schedule: Q01DX005 (ip), vehicle: saline) 107 % of control; (dose: 240.0 mg/kg/injection, schedule: Q01DX005 (ip), vehicle: saline) 107 % of control.
Consider `O=C1Nc2ccccc2/C1=C/c1ccco1`, for which the T/C is 99 % of control under setting [10], 113 % of control under setting [11] and 89 % of control under setting [12].
In the case of `N#Cc1nnc2cccc(Cl)n12`, the T/C by setting is: (dose: 25.0 mg/kg/injection, schedule: Q01DX001 (ip), vehicle: Klucel (hydroxypropylcellulose) (HPC)) 96 % of control; (dose: 50.0 mg/kg/injection, schedule: Q01DX001 (ip), vehicle: Klucel (hydroxypropylcellulose) (HPC)) 95 % of control; under setting [13], 97 % of control.
In the case of `O=C(CCl)N1C(=O)NC(c2ccc(Cl)cc2)(c2ccc(Cl)cc2)C1=O`, the T/C (dose: 5.0 mg/kg/injection, schedule: Q04DX003 (ip), vehicle: other) was 105 % of control; the T/C (dose: 10.0 mg/kg/injection, schedule: Q04DX003 (ip), vehicle: other) was 116 % of control; the T/C (dose: 20.0 mg/kg/injection, schedule: Q04DX003 (ip), vehicle: other) was 108 % of control and 123 % of control.
Consider `Cc1ccc(NC(=S)NCC2CCCO2)cc1C` (stereo not drawn), for which the T/C is 102 % of control and 98 % of control under setting [10]; 91 % of control under setting [11]; 92 % of control and 93 % of control and 97 % of control under setting [12].
In the case of `CC(C)(C)SC(=S)SCC(=O)c1cc2cc(Br)ccc2o1`, the T/C reads like this: under setting [2], 89 % of control; under setting [3], 96 % of control; under setting [4], 93 % of control.
As to `O=C(CCl)c1ccc([N+](=O)[O-])cc1`, the T/C reads like this: (dose: 1.56 mg/kg/injection, schedule: Q01DX005 (ip), vehicle: Klucel (hydroxypropylcellulose) (HPC)) 100 % of control; (dose: 3.12 mg/kg/injection, schedule: Q01DX005 (ip), vehicle: Klucel (hydroxypropylcellulose) (HPC)) 100 % of control; (dose: 6.25 mg/kg/injection, schedule: Q01DX005 (ip), vehicle: Klucel (hydroxypropylcellulose) (HPC)) 108 % of control; (dose: 12.5 mg/kg/injection, schedule: Q01DX005 (ip), vehicle: Klucel (hydroxypropylcellulose) (HPC)) 89 % of control and 98 % of control; (dose: 50.0 mg/kg/injection, schedule: Q01DX009 (ip), vehicle: saline with Tween-80) 116 % of control.
In the case of `O=S(=O)(OCCCl)c1c(Cl)c(Cl)c(Cl)c(Cl)c1Cl`, the T/C runs as follows: (dose: 12.5 mg/kg/injection, schedule: Q01DX005 (ip), vehicle: saline with Tween-80) 95 % of control; under setting [1], 92 % of control; under setting [2], 92 % of control and 93 % of control; under setting [3], 96 % of control.
On to `CC[As](CC)SC1OC(C2COC(C)(C)O2)C2OC(C)(C)OC12` (stereo not drawn), for which the T/C runs as follows: (dose: 12.5 mg/kg/injection, schedule: Q01DX009 (ip), vehicle: distilled water + Tween-80) 120 % of control; (dose: 25.0 mg/kg/injection, schedule: Q01DX009 (ip), vehicle: distilled water + Tween-80) 123 % of control; (dose: 50.0 mg/kg/injection, schedule: Q01DX009 (ip), vehicle: distilled water + Tween-80) 120 % of control.
Take `O=c1c2cncnc2sc2nc3ccccc3n12`: the T/C was 95 % of control under setting [5], 94 % of control under setting [6] and 88 % of control under setting [14].
As for `CCN(CC)CCCC(C)Nc1cc(O)c2c(c1O)C(=O)c1ccccc1C2=O` (stereo not drawn), the T/C is 102 % of control under setting [2], 98 % of control under setting [3] and 111 % of control under setting [4].
For the molecule `Cc1ncc(Br)c(C(=O)N=C(N)N)n1`, the T/C by setting is: (dose: 50.0 mg/kg/injection, schedule: Q01DX005 (ip), vehicle: Klucel (hydroxypropylcellulose) (HPC)) 95 % of control; (dose: 100.0 mg/kg/injection, schedule: Q01DX005 (ip), vehicle: Klucel (hydroxypropylcellulose) (HPC)) 100 % of control; (dose: 200.0 mg/kg/injection, schedule: Q01DX005 (ip), vehicle: Klucel (hydroxypropylcellulose) (HPC)) 94 % of control.
For `COc1ccc(NC(=O)C2C(=O)C(=O)N(c3ccc(OC)cc3OC)C2=O)c(OC)c1` (stereo not drawn), the T/C runs as follows: under setting [10], 98 % of control; under setting [11], 100 % of control; under setting [12], 98 % of control.
Consider `COc1ccc(C2COc3cc(O)c(O)cc3C2)cc1OC` (stereo not drawn), for which the T/C runs as follows: under setting [5], 101 % of control; under setting [6], 97 % of control; under setting [14], 101 % of control.
Consider `Cc1ncc(O)c(C(=O)O)c1C(=O)O`, for which the T/C (dose: 17.5 mg/kg/injection, schedule: Q01DX005 (ip), vehicle: Klucel (hydroxypropylcellulose) (HPC)) is 100 % of control; the T/C (dose: 35.0 mg/kg/injection, schedule: Q01DX005 (ip), vehicle: Klucel (hydroxypropylcellulose) (HPC)) is 103 % of control; the T/C (dose: 70.0 mg/kg/injection, schedule: Q01DX005 (ip), vehicle: Klucel (hydroxypropylcellulose) (HPC)) is 100 % of control.
With `ClCCN(CCCl)c1ccc(N=Nc2cccc(Cl)c2Cl)cc1`, the T/C runs as follows: (dose: 150.0 mg/kg/injection, schedule: Q04DX003 (ip), vehicle: Klucel (hydroxypropylcellulose) (HPC)) 99 % of control; (dose: 300.0 mg/kg/injection, schedule: Q04DX003 (ip), vehicle: Klucel (hydroxypropylcellulose) (HPC)) 95 % of control.
With `CC(C)C1NC(C(C)C)N2C(C(C)C)N12` (stereo not drawn), the T/C was 100 % of control under setting [13]; 100 % of control (dose: 200.0 mg/kg/injection, schedule: Q01DX001 (ip), vehicle: Klucel (hydroxypropylcellulose) (HPC)); 106 % of control (dose: 400.0 mg/kg/injection, schedule: Q01DX001 (ip), vehicle: Klucel (hydroxypropylcellulose) (HPC)).
As to `Cc1ccc(NC(=O)/C(Cl)=C2/Sc3ccccc3NC2=O)cc1`, the T/C runs as follows: under setting [5], 96 % of control; under setting [6], 100 % of control; under setting [14], 95 % of control.
